Measured values from patent US7659306B2, “Method of increasing gastric emptying” (The Board of Regents of the University of Texas System, priority 2004, dated 2010).
Entries after “also recorded” stand apart in the source; their conditions may differ. Like-named read-outs stand apart in the source and are kept apart here.

Tests used:
[1] = target: T1, dopamine 3 receptor (D3R) (Rattus norvegicus, UniProt P19020); assay: Electric field stimulation induced relaxation of pyloric strips in an organ bath; set-up: from tissue; host or cells: whole animal, adult male Sprague-Dawley rat (gastrointestinal tract); details: pyloric strips of adult male Sprague-Dawley rats, agonist 0.1-10 µM, dose dependent, hydrochloride
T1 sequence (P19020 whole entry): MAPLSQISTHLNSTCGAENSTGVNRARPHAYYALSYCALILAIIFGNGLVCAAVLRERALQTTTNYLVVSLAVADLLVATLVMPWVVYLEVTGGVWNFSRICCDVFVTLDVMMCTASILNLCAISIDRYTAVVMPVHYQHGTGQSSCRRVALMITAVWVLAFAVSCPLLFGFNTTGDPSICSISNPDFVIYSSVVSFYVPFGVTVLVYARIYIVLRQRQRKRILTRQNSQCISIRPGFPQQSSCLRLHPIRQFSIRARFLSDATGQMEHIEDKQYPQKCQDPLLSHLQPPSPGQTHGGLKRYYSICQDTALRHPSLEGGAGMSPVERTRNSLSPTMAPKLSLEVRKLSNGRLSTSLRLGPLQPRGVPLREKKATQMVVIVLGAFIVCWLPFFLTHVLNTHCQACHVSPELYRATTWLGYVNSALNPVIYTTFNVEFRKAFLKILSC
Protocol: The pyloric function was assessed by measuring the relaxation of pyloric strips in an organ bath in response to electric field stimulation in the presence of D3R agonist ranging from 0.1-10 µM (1 µM vs control, P<0.05; 10 μM vs control, P=0.001).
Pyloric function was assessed in an organ bath by measuring the relaxation of pyloric strips of adult male Sprague-Dawley rats in the presence of the dopamine 3 receptor agonist, PD 128907 hydrochloride.

[2] = target: T1, dopamine 3 receptor (D3R); assay: Gastric emptying test (phenol red method) after i.p. D3R agonist; type: in vivo; set-up: from tissue; host or cells: whole animal, adult male Sprague-Dawley rat (gastrointestinal tract); details: adult male Sprague-Dawley rats, 1 mg/kg i.p., 20 minutes after phenol red methylcellulose meal, mean±SEM, vehicle 78±4.86%, hydrochloride
Protocol: Values were expressed as mean±SEM.
Adult male Sprague-Dawley rats (weighing 200-250 g) were deprived of food 18 hr prior to experiments but allowed free access to water. The animals were intraperitoneally injected with a dopamine 3 receptor agonist, PD 128907 hydrochloride, at 1 mg/kg or with physiological saline (control) before administration by oral tube of 1.5 ml of pre-warmed (35° C.) 0.05% phenol red solution.

[3] = target: T1, dopamine 3 receptor (D3R); details: adult male Sprague-Dawley rats, dopamine 1 mg/kg i.p. plus nafadotride 0.1 or 1 mg/kg i.p., 20 minutes after meal
Protocol: Gastric emptying was assessed in adult male Sprague-Dawley rats by the phenol red method. […] Control rats received vehicle (PBS).
A solution of 50 mg phenol red in 100 ml aqueous methylcellulose (1.5%) was used as a test meal. Methylcellulose (1.5 g, 400 centipoises) was dispersed in 100 ml of hot water (80° C.) under continuous shaking. The solution was allowed to cool to 35° C., and then phenol red was added. Intensity and duration (5 hr) of agitation were kept constant to obtain solutions of reproducible viscosity.
Conscious rats were fed the 0.05% phenol red methylcellulose solution and euthanized after 20 minutes. The stomach was clamped at the pylorus and cardiac ends before removal. The stomach and its contents were homogenized with 100 ml of 0.1N NaOH. A baseline control for each phenol red solution preparation was used by mixing 1.5 ml with 100 ml of 0.1N NaOH. The mixture was then kept for 1 hr at room temperature: 5 ml of the supernatant was added to 0.5 ml of trichloroacetic acid solution (20% w/v) to precipitate the proteins. […] The solutions were then read with a spectrophotometer at a wavelength of 560 nm.
Gastric emptying (G.E.) for each rat was calculated according to the following formula: (1−Absorbance of test sample)/(Absorbance of baseline control)×100%. Values were expressed as mean±SEM. […]

reversal of the effect of dopamine on gastric emptying ([3]; listed as Nafadotride) | SMILES | electric field stimulation induced relaxation of pyloric strips [1] | gastric emptying [2] [%] | gastric emptying ([2]; listed as D3R agonist) [%] | reversal of the effect of dopamine on gastric emptying [3]
 | CCCN1CCO[C@@H]2c3cc(O)ccc3OC[C@H]21.Cl [PD 128907 hydrochloride] | reduced electric field stimulation induced relaxation of pyloric strips; also recorded: significant reduction in electric field stimulation induced relaxation of pyloric strips | 44 | 44±8.26 | 
partially reverse the effect of dopamine | CCCCN1CCCC1CNC(=O)c1cc(C#N)c2ccccc2c1OC (centres unmarked) [nafadotride] |  |  |  | partial reversal of the effect of dopamine on gastric emptying
